Reference: ChEMBL document CHEMBL1201862, “PubChem BioAssay data set” (2004)
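Assay format: 96-well plates, 48-hour exposure. GI50 = concentration required for 50% inhibition of growth.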 Calls of active or inactive are those of the source. No stated cut-off is given here; in the data, active = GI50 up to about 1.1 µM and inactive = higher.

Experiments:
Assay in all cases: NCI-60 cell line screen, 48 h
UACC-62 = tested on: UACC-62
HL-60 = tested on: HL-60
NCI-H522 = tested on: NCI-H522
CCRF-CEM = tested on: CCRF-CEM
HOP-62 = tested on: HOP-62
MOLT-4 = tested on: MOLT-4
HCT-116 = tested on: HCT-116
RXF 631 = tested on: RXF 631
OVCAR-5 = tested on: OVCAR-5
DMS-273 = tested on: DMS-273
A549 = tested on: A549
K562 = tested on: K562
IGROV-1 = tested on: IGROV-1
OVCAR-8 = tested on: OVCAR-8
OVCAR-4 = tested on: OVCAR-4
SK-MEL-5 = tested on: SK-MEL-5
HT-29 = tested on: HT-29
NCI-H23 = tested on: NCI-H23
M19-MEL = tested on: M19-MEL
TK-10 = tested on: TK-10
SK-MEL-28 = tested on: SK-MEL-28
LOX IMVI = tested on: LOX IMVI
HOP-18 = tested on: HOP-18
COLO 205 = tested on: COLO 205
NCI-H226 = tested on: NCI-H226
RXF 393 = tested on: RXF 393
SK-OV-3 = tested on: SK-OV-3
SNB-19 = tested on: SNB-19
DLD-1 = tested on: DLD-1
OVCAR-3 = tested on: OVCAR-3
CAKI-1 = tested on: CAKI-1
RPMI-8226 = tested on: RPMI-8226
SW-620 = tested on: SW-620
LXFL 529 = tested on: LXFL 529
A498 = tested on: A498
EKVX = tested on: EKVX
DMS-114 = tested on: DMS-114
HOP-92 = tested on: HOP-92
M14 = tested on: M14
786-0 = tested on: 786-0
HCC 2998 = tested on: HCC 2998
SNB-78 = tested on: SNB-78
HCT-15 = tested on: HCT-15
SF-539 = tested on: SF-539
KM-20L2 = tested on: KM-20L2
SF-295 = tested on: SF-295
UACC-257 = tested on: UACC-257
XF498 = tested on: XF498
ACHN = tested on: ACHN
KM12 = tested on: KM12
SNB-75 = tested on: SNB-75
Malme-3M = tested on: Malme-3M
SK-MEL-2 = tested on: SK-MEL-2
UO-31 = tested on: UO-31
SF-268 = tested on: SF-268
U-251 = tested on: U-251
SN12C = tested on: SN12C
NCI-H460 = tested on: NCI-H460
PC-3 = tested on: PC-3
DU-145 = tested on: DU-145
MDA-N = tested on: MDA-N
T47D = tested on: T47D
Hs-578T = tested on: Hs-578T
BT-549 = tested on: BT-549
MDA-MB-231 = tested on: MDA-MB-231
SR = tested on: SR
MCF7 = tested on: MCF7
MDA-MB-435 = tested on: MDA-MB-435

Cc1cc(C)nc(NS(=O)(=O)c2ccc(NC(=O)c3cccc4c(Nc5ccc(S(N)(=O)=O)cc5)c5ccccc5nc34)cc2)n1
GI50 (UACC-62): 2.88 µM (inactive)
GI50 (HL-60): 7.4 µM (inactive)
GI50 (NCI-H522): 13 µM (inactive)
GI50 (CCRF-CEM): 6.82 µM (inactive)
GI50 (HOP-62): 26.7 µM (inactive)
GI50 (MOLT-4): 6.71 µM (inactive)
GI50 (HCT-116): 7.64 µM (inactive)
GI50 (RXF 631): > 100 µM (inactive)
GI50 (OVCAR-5): > 100 µM (inactive)
GI50 (DMS-273): 34.8 µM (inactive)
GI50 (A549): > 100 µM (inactive)
GI50 (K562): 7.85 µM (inactive)
GI50 (IGROV-1): 4.24 µM (inactive)
GI50 (OVCAR-8): 30.3 µM (inactive)
GI50 (OVCAR-4): 35.1 µM (inactive)
GI50 (SK-MEL-5): 19.1 µM (inactive)
GI50 (HT-29): 34.9 µM (inactive)
GI50 (NCI-H23): 37.1 µM (inactive)
GI50 (M19-MEL): 13.5 µM (inactive)
GI50 (TK-10): > 74.6 µM (inactive)
GI50 (SK-MEL-28): 3.09 µM (inactive)
GI50 (LOX IMVI): 19.4 µM (inactive)
GI50 (HOP-18): > 56 µM (inactive)
GI50 (COLO 205): 26.6 µM (inactive)
GI50 (NCI-H226): > 100 µM (inactive)
GI50 (RXF 393): 11.2 µM (inactive)
GI50 (SK-OV-3): 15.2 µM (inactive)
GI50 (SNB-19): 4.02 µM (inactive)
GI50 (DLD-1): > 93.3 µM (inactive)
GI50 (OVCAR-3): 9.42 µM (inactive)
GI50 (CAKI-1): > 100 µM (inactive)
GI50 (RPMI-8226): 12.8 µM (inactive)
GI50 (SW-620): 20.6 µM (inactive)
GI50 (LXFL 529): 3.92 µM (inactive)
GI50 (A498): > 94.2 µM (inactive)
GI50 (EKVX): > 100 µM (inactive)
GI50 (DMS-114): 17.5 µM (inactive)
GI50 (HOP-92): 20.7 µM (inactive)
GI50 (M14): > 82.6 µM (inactive)
GI50 (786-0): 50.8 µM (inactive)
GI50 (HCC 2998): 14.8 µM (inactive)
GI50 (SNB-78): 9.79 µM (inactive)
GI50 (HCT-15): > 100 µM
GI50 (SF-539): 3.67 µM (inactive)
GI50 (KM-20L2): > 75.5 µM (inactive)
GI50 (SF-295): > 66.5 µM (inactive)
GI50 (UACC-257): 28.1 µM (inactive)
GI50 (XF498): 39.2 µM (inactive)
GI50 (ACHN): > 100 µM (inactive)
GI50 (KM12): 15.4 µM (inactive)
GI50 (SNB-75): 5.46 µM (inactive)
GI50 (Malme-3M): 18.2 µM (inactive)
GI50 (SK-MEL-2): 10.2 µM (inactive)
GI50 (UO-31): > 100 µM (inactive)
GI50 (SF-268): 6.59 µM (inactive)
GI50 (U-251): 8.89 µM (inactive)
GI50 (SN12C): 16.1 µM (inactive)
GI50 (NCI-H460): 44.1 µM (inactive)

CCc1cccc(CC)c1NC(=O)C(C#N)C1=C(Cl)C(=O)c2ccccc2C1=O (stereo unspecified)
GI50 (UACC-62): 17.5 µM (inactive)
GI50 (PC-3): 13 µM (inactive)
GI50 (DU-145): 16.8 µM (inactive)
GI50 (HL-60): 1.3 µM (inactive)
GI50 (NCI-H522): 8.55 µM (inactive)
GI50 (CCRF-CEM): 1.33 µM (inactive)
GI50 (HOP-62): 14.5 µM (inactive)
GI50 (MOLT-4): 1.53 µM (inactive)
GI50 (HCT-116): 15.9 µM (inactive)
GI50 (RXF 631): 16.1 µM (inactive)
GI50 (MDA-N): 16.7 µM (inactive)
GI50 (OVCAR-5): 18.8 µM (inactive)
GI50 (T47D): 3.79 µM (inactive)
GI50 (DMS-273): 17.9 µM (inactive)
GI50 (A549): 18.5 µM (inactive)
GI50 (K562): 2.33 µM (inactive)
GI50 (IGROV-1): 17.8 µM (inactive)
GI50 (OVCAR-8): 19.8 µM (inactive)
GI50 (OVCAR-4): 16.6 µM (inactive)
GI50 (SK-MEL-5): 14.7 µM (inactive)
GI50 (HT-29): 19.9 µM (inactive)
GI50 (NCI-H23): 13 µM (inactive)
GI50 (M19-MEL): 19.1 µM (inactive)
GI50 (TK-10): 21.2 µM (inactive)
GI50 (SK-MEL-28): 20.6 µM (inactive)
GI50 (LOX IMVI): 12.7 µM (inactive)
GI50 (HOP-18): 15.5 µM (inactive)
GI50 (COLO 205): 20.3 µM (inactive)
GI50 (NCI-H226): 15 µM (inactive)
GI50 (Hs-578T): < 0.01 µM (active)
GI50 (BT-549): 12.4 µM (inactive)
GI50 (RXF 393): 16.3 µM (inactive)
GI50 (SK-OV-3): 19.7 µM (inactive)
GI50 (SNB-19): 18.1 µM (inactive)
GI50 (DLD-1): 17.4 µM (inactive)
GI50 (OVCAR-3): 16.8 µM (inactive)
GI50 (CAKI-1): 15.6 µM (inactive)
GI50 (RPMI-8226): 4.56 µM (inactive)
GI50 (MDA-MB-231): 5.55 µM (inactive)
GI50 (SW-620): 9.33 µM (inactive)
GI50 (LXFL 529): 16.1 µM (inactive)
GI50 (A498): 19 µM (inactive)
GI50 (SR): 1.2 µM (inactive)
GI50 (EKVX): 21.1 µM (inactive)
GI50 (DMS-114): 22 µM (inactive)
GI50 (HOP-92): 2.96 µM (inactive)
GI50 (M14): 16.8 µM (inactive)
GI50 (786-0): 16.4 µM (inactive)
GI50 (HCC 2998): 16.9 µM (inactive)
GI50 (SNB-78): 8.15 µM (inactive)
GI50 (HCT-15): 20.6 µM
GI50 (SF-539): 11.3 µM (inactive)
GI50 (KM-20L2): 21.4 µM (inactive)
GI50 (SF-295): 15.7 µM (inactive)
GI50 (MCF7): 14.6 µM (inactive)
GI50 (UACC-257): 17.4 µM (inactive)
GI50 (MDA-MB-435): 14.5 µM (inactive)
GI50 (XF498): 15.9 µM (inactive)
GI50 (ACHN): 16.4 µM (inactive)
GI50 (KM12): 18.9 µM (inactive)
GI50 (SNB-75): 5.18 µM (inactive)
GI50 (Malme-3M): 9.23 µM (inactive)
GI50 (SK-MEL-2): 18.8 µM (inactive)
GI50 (UO-31): 11.8 µM (inactive)
GI50 (SF-268): 16.6 µM (inactive)
GI50 (U-251): 15.3 µM (inactive)
GI50 (SN12C): 16.7 µM (inactive)
GI50 (NCI-H460): 22.6 µM (inactive)
